Drawing on patent US10336762B2 (priority 2017, dated 2019), this text covers EC50 and IC50 for 24 compounds.

For experiment [1], the system named is TNFα. Description: cells. In kind it is cell-based, human. The conditions noted are these: Homo sapiens, Monocyte, LPS-stimulated human monocytes, TNFα content; read-out: EC50 TNF.
For experiment [2], the target named is IRAK4 enzyme (Homo sapiens (Human), UniProt Q9NWZ3). Description: biochemical. In kind it is biochemical. The conditions noted are these: IRAK4 enzyme, TR-FRET (HTRF), 500 μM ATP. (In general: Time-resolved FRET reads energy transfer from a long-lived donor to a nearby acceptor.)
Sequence of IRAK4 enzyme (Q9NWZ3 whole entry): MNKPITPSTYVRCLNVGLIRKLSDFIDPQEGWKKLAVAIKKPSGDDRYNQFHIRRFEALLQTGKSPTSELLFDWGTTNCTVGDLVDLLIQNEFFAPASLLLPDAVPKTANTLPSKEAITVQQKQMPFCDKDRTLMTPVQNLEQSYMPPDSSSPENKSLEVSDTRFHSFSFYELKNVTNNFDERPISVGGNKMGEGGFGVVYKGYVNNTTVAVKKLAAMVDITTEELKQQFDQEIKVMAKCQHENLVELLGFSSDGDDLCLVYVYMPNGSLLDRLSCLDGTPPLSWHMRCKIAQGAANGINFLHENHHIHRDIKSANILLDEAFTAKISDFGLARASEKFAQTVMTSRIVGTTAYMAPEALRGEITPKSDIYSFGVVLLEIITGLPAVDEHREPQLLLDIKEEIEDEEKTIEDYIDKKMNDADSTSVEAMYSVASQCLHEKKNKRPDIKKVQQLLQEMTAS

For the compound `CC(C)(O)[C@H](F)CNC(=O)c1cnc(-c2ccc3cc(C#N)cnn23)cc1NCC1CCC1` [Example 703, (R)-6-(3-cyano-pyrrolo[1,2-b]pyridazin-7-yl)-4-((cyclobutyl-methyl)amino)-N-(2-fluoro-3-hydroxy-3-methylbutyl)nicotinamide], the EC50 in experiment [1] is 45 nM. Moreover, the IC50 in experiment [2] was < 1 nM.

`CC(C)(O)[C@H](F)CNC(=O)c1cnc(-c2ccc3cc(C#N)cnn23)cc1N[C@H]1C[C@H](Cn2cc(C3CC3)nn2)C1` [Example 704, 6-(3-cyanopyrrolo[1,2-b]pyridazin-7-yl)-4-(((1r,3R)-3-((4-cyclopropyl-1H-1,2,3-triazol-1-yl)methyl)cyclobutyl)amino)-N—((R)-2-fluoro-3-hydroxy-3-methylbutyl)nicotinamide]: the EC50 in experiment [1] is 69 nM. The compound further returned an IC50 in experiment [2] of 1 nM.

For the compound `CC(C)(O)[C@H](F)CNC(=O)c1cnc(-c2ccc3cc(C#N)cnn23)cc1NCCc1ccc(F)cc1` [Example 707, (R)-6-(3-cyanopyrrolo[1,2-b]pyridazin-7-yl)-N-(2-fluoro-3-hydroxy-3-methylbutyl)-4-((4-fluorophenethyl)amino) nicotinamide], the EC50 in experiment [1] was found to be 42 nM. The same compound came in with an IC50 in experiment [2] of 1 nM.

For `CC(C)(O)[C@H](F)CNC(=O)c1cnc(-c2ccc3cc(C#N)cnn23)cc1N[C@H]1C[C@H](Oc2ccccc2)C1` [Example 708, 6-(3-cyanopyrrolo[1,2-b]pyridazin-7-yl)-N-((R)-2-fluoro-3-hydroxy-3-methylbutyl)-4-(((1r,3R)-3-phenoxycyclobutyl)amino) nicotinamide], the EC50 in experiment [1] turned out to be 57 nM. Moreover, the IC50 in experiment [2] amounted to 1 nM.

As for `N#Cc1cnn2c(-c3cc(NC45CCC(O)(CC4)CC5)c(C(=O)NCC4(F)CC4)cn3)ccc2c1` [Example 709, 6-(3-cyanopyrrolo[1,2-b]pyridazin-7-yl)-N-((1-fluorocyclopropyl)methyl)-4-((4-hydroxy-bicyclo[2.2.2]octan-1-yl)amino)nicotinamide], the EC50 in experiment [1] was determined as 151 nM. This compound yielded an IC50 in experiment [2] of 3 nM.

With `N#Cc1cnn2c(-c3cc(NC45CCC(O)(CC4)CC5)c(C(=O)NCC4(C(F)F)COC4)cn3)ccc2c1` [Example 710, 6-(3-cyanopyrrolo[1,2-b]pyridazin-7-yl)-N-((3-(difluoromethyl)oxetan-3-yl)methyl)-4-((4-hydroxybicyclo[2.2.2]octan-1-yl)amino) nicotinamide], the concentration for a half-maximal effect (EC50) in experiment [1] is 183 nM. In experiment [2], this compound returned an IC50 of 4 nM.

Turning to `N#Cc1cnn2c(-c3cc(NC45CCC(O)(CC4)CC5)c(C(=O)NCC4(CO)COC4)cn3)ccc2c1` [Example 711, 6-(3-cyanopyrrolo[1,2-b]pyridazin-7-yl)-4-((4-hydroxybicyclo[2.2.2]octan-1-yl)amino)-N-((3-(hydroxymethyl)oxetan-3-yl)methyl)nicotinamide], in experiment [1], the EC50 was 231 nM. The half-inhibitory concentration (IC50) in experiment [2] came out at 2 nM.

Consider `CC(C)Nc1cc(-c2ccc3cc(C#N)cnn23)ncc1C(=O)NCCC(O)C(F)(F)F` (stereo not drawn) [Example 712, 6-(3-cyanopyrrolo[1,2-b]pyridazin-7-yl)-4-(isopropyl-amino)-N-(4,4,4-trifluoro-3-hydroxybutyl)nicotinamide], for which the EC50 in experiment [1] amounted to 47 nM. Also, in experiment [2], the IC50 is < 1 nM.

`COCC1CCC1CNc1cc(-c2ccc3cc(C#N)cnn23)ncc1C(=O)NC[C@@H](F)C(C)(C)O` (stereo partly drawn) [Example 713, 6-(3-cyanopyrrolo[1,2-b]pyridazin-7-yl)-N-((R)-2-fluoro-3-hydroxy-3-methyl-butyl)-4-(((2-(methoxy-methyl)cyclobutyl)methyl)amino)nicotinamide]: the concentration for a half-maximal effect (EC50) in experiment [1] worked out at 264 nM. In experiment [2], the IC50 was determined as 2 nM.

For the compound `CC(C)(O)[C@H](F)CNC(=O)c1cnc(-c2ccc3cc(C#N)cnn23)cc1N[C@H]1C[C@H](CN2CCOC2=O)C1` [Example 714, 6-(3-cyanopyrrolo[1,2-b]pyridazin-7-yl)-N-((R)-2-fluoro-3-hydroxy-3-methylbutyl)-4-(((1r,3R)-3-((2-oxooxazolidin-3-yl)methyl)cyclobutyl)amino)nicotinamide], the EC50 in experiment [1] stood at 35 nM. For the same compound, in experiment [2], the IC50 was < 1 nM.

Take `CC(C)(O)[C@H](F)CNC(=O)c1cnc(-c2ccc3cc(C#N)cnn23)cc1N[C@H]1CC[C@H](CN2CCOC2=O)CC1` [Example 715, 6-(3-cyanopyrrolo[1,2-b]pyridazin-7-yl)-N-((R)-2-fluoro-3-hydroxy-3-methylbutyl)-4-(((1r,4R)-4-((2-oxooxazolidin-3-yl)methyl)cyclohexyl)amino)nicotinamide]: in experiment [1], the EC50 turned out to be 57 nM. For the same compound, the IC50 in experiment [2] came to 1 nM.

`COC(=O)NCCCNc1cc(-c2ccc3cc(C#N)cnn23)ncc1C(=O)NC[C@@H](F)C(C)(C)O` [Example 716, (R)-methyl (3-((2-(3-cyanopyrrolo[1,2-b]pyridazin-7-yl)-5-((2-fluoro-3-hydroxy-3-methylbutyl)carbamoyl)pyridin-4-yl)amino)propyl)carbamate]: the EC50 in experiment [1] was 55 nM. Also, the concentration for half-maximal inhibition (IC50) in experiment [2] was < 1 nM.

As to `COC(=O)NCCCCNc1cc(-c2ccc3cc(C#N)cnn23)ncc1C(=O)NC[C@@H](F)C(C)(C)O` [Example 717, (R)-methyl (4-((2-(3-cyano-pyrrolo[1,2-b]pyridazin-7-yl)-5-((2-fluoro-3-hydroxy-3-methylbutyl)carbamoyl)pyridin-4-yl)amino)butyl) carbamate], the concentration for a half-maximal effect (EC50) in experiment [1] was 66 nM. In addition, the concentration for half-maximal inhibition (IC50) in experiment [2] is < 1 nM.

With `COC(=O)NCC(C)(C)CNc1cc(-c2ccc3cc(C#N)cnn23)ncc1C(=O)NC[C@@H](F)C(C)(C)O` [Example 718, (R)-methyl (3-((2-(3-cyano-pyrrolo[1,2-b]pyridazin-7-yl)-5-((2-fluoro-3-hydroxy-3-methylbutyl)carbamoyl)pyridin-4-yl)amino)-2,2-dimethylpropyl)carbamate], the EC50 in experiment [1] is 280 nM. In experiment [2], this compound registered an IC50 of 2 nM.

As for `CC(C)(O)[C@H](F)CNC(=O)c1cnc(-c2ccc3cc(C#N)cnn23)cc1Nc1ccc(Cn2ccccc2=O)cc1` [Example 719, (R)-6-(3-cyanopyrrolo[1,2-b]pyridazin-7-yl)-N-(2-fluoro-3-hydroxy-3-methylbutyl)-4-((4-((2-oxopyridin-1(2H)-yl)methyl)phenyl)amino)nicotinamide], in experiment [1], the EC50 came to 11 nM. Also, the IC50 in experiment [2] was < 1 nM.

Take `COC(=O)NCCCC(C)(C)Nc1cc(-c2ccc3cc(C#N)cnn23)ncc1C(=O)NC[C@@H](F)C(C)(C)O` [Example 720, (R)-methyl (4-((2-(3-cyano-pyrrolo[1,2-b]pyridazin-7-yl)-5-((2-fluoro-3-hydroxy-3-methylbutyl)carbamoyl)pyridin-4-yl)amino)-4-methylpentyl)carbamate]: the concentration for a half-maximal effect (EC50) in experiment [1] was 243 nM. The same compound displayed an IC50 in experiment [2] of 2 nM.

As to `COC(=O)NCCC(C)(C)Nc1cc(-c2ccc3cc(C#N)cnn23)ncc1C(=O)NC[C@@H](F)C(C)(C)O` [Example 721, (R)-methyl (3-((2-(3-cyano-pyrrolo[1,2-b]pyridazin-7-yl)-5-((2-fluoro-3-hydroxy-3-methylbutyl)carbamoyl)pyridin-4-yl)amino)-3-methylbutyl)carbamate], the EC50 in experiment [1] was determined as 87 nM. In experiment [2], this compound had an IC50 of 1 nM.

Turning to `COC(=O)N1C[C@@H]2[C@H](C1)[C@H]2Nc1cc(-c2ccc3cc(C#N)cnn23)ncc1C(=O)NC[C@@H](F)C(C)(C)O` [Example 722, (1R,5S,6s)-methyl 6-((2-(3-cyanopyrrolo[1,2-b]pyridazin-7-yl)-5-(((R)-2-fluoro-3-hydroxy-3-methyl-butyl)carbamoyl)pyridin-4-yl)amino)-3-aza-bicyclo[3.1.0]hexane-3-carboxylate], in experiment [1], the EC50 is 35 nM. In experiment [2], the IC50 is < 1 nM.

In the case of `CC(C)(O)[C@H](F)CNC(=O)c1cnc(-c2ccc3cc(C#N)cnn23)cc1N[C@H]1CC[C@H](N2CCC(F)(F)C2)CC1` [Example 723, 6-(3-cyanopyrrolo[1,2-b]pyridazin-7-yl)-4-(((1r,4R)-4-(3,3-difluoropyrrolidin-1-yl)cyclohexyl)amino)-N-((R)-2-fluoro-3-hydroxy-3-methylbutyl)nicotinamide], the half-maximal effective concentration (EC50) in experiment [1] is 793 nM. The compound also registered an IC50 in experiment [2] of 7 nM.

For `CC(C)(O)[C@H](F)CNC(=O)c1cnc(-c2ccc3cc(C#N)cnn23)cc1N[C@H]1CC[C@@H](N2CCC(F)(F)C2)CC1` [Example 724, 6-(3-cyanopyrrolo[1,2-b]pyridazin-7-yl)-4-(((1s,4S)-4-(3,3-difluoropyrrolidin-1-yl)cyclohexyl)amino)-N-((R)-2-fluoro-3-hydroxy-3-methylbutyl)nicotinamide], the EC50 in experiment [1] was 59 nM. Moreover, the IC50 in experiment [2] was < 1 nM.

Consider `CNC(=O)OC[C@H]1C[C@H](Nc2cc(-c3ccc4cc(C#N)cnn34)ncc2C(=O)NC[C@@H](F)C(C)(C)O)C1` [Example 725], for which the EC50 in experiment [1] was found to be 23 nM. Moreover, in experiment [2], the IC50 was < 1 nM.

For the compound `COC(=O)NC(C)(C)CCCNc1cc(-c2ccc3cc(C#N)cnn23)ncc1C(=O)NC[C@@H](F)C(C)(C)O` [Example 726, (R)-methyl (5-((2-(3-cyanopyrrolo[1,2-b]pyridazin-7-yl)-5-((2-fluoro-3-hydroxy-3-methylbutyl)carbamoyl)pyridin-4-yl)amino)-2-methylpentan-2-yl) carbamate], the EC50 in experiment [1] came out at 169 nM. In experiment [2], this compound displayed an IC50 of 4 nM.

Consider `COC(=O)NC(C)(C)CCNc1cc(-c2ccc3cc(C#N)cnn23)ncc1C(=O)NC[C@@H](F)C(C)(C)O` [Example 727, (R)-methyl (4-((2-(3-cyanopyrrolo[1,2-b]pyridazin-7-yl)-5-((2-fluoro-3-hydroxy-3-methylbutyl)carbamoyl)pyridin-4-yl)amino)-2-methylbutan-2-yl)carbamate], for which the EC50 in experiment [1] worked out at 203 nM. Besides, the IC50 in experiment [2] amounted to 3 nM.

In the case of `CC(C)(O)[C@H](F)CNC(=O)c1cnc(-c2ccc3cc(C#N)cnn23)cc1N[C@H]1C[C@H](CNC(=O)OCC(F)F)C1` [Example 728, 2,2-difluoroethyl (((1R,3r)-3-((2-(3-cyanopyrrolo[1,2-b]pyridazin-7-yl)-5-(((R)-2-fluoro-3-hydroxy-3-methylbutyl)carbamoyl)pyridin-4-yl)amino)cyclo-butyl)methyl)carbamate], the EC50 in experiment [1] was 4 nM. In addition, the IC50 in experiment [2] was < 1 nM.

The EC50 is the concentration that produces a half-maximal response. The IC50 is the midpoint of a concentration-inhibition curve. Higher therefore signals weaker potency.
